These results are taken from US8163793B2, “Proline derivatives” (Hoffman-La Roche Inc., priority 2009, dated 2012).

For test [1], the target named is Cathepsin S (UniProt P25774). Put plainly: Cathepsin enzyme inhibition assay (fluorogenic peptide substrate Z-Val-Val-Arg-AMC), Cathepsin S. It is filed as biochemical, human and mouse. As to conditions: enzyme 1 nM, substrate 20 μM, pH 6.5; read-out: CatS IC50. The procedure, abridged: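 Human or mouse cathepsin S (1 nM) was run in 100 mM potassium phosphate pH 6.5 with 5 mM EDTA, 0.001% Triton X-100 and 5 mM DTT. The rise in AMC fluorescence from cleavage was measured, and IC50 values were calculated by standard methods and expressed in μM.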

Test [2] deals with Cat L (UniProt P07711). Put plainly: Cathepsin enzyme inhibition assay (fluorogenic peptide substrate Z-Val-Val-Arg-AMC), Cathepsin L. Format: biochemical, human and mouse. As to conditions: enzyme 1 nM, substrate 20 μM, pH 6.5; read-out: CatL IC50. The method, boiled down:
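Cathepsin L at 1 nM was mixed with compound, then started with 20 μM Z-Val-Val-Arg-AMC in pH 6.5 potassium phosphate with EDTA, Triton X-100 and 5 mM DTT. AMC fluorescence (ex 360/em 465 nm) was followed over 20 min. IC50 is given in μM.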

In general, IC50 refers to the concentration at which inhibition is half-maximal. Consider `N#CC1(NC(=O)[C@@H]2C[C@@H](S(=O)(=O)c3ccccc3Cl)CN2S(=O)(=O)c2ccc(Cl)cc2)CC1` [Example 315, (2S,4R)-4-(2-Chloro-benzenesulfonyl)-1-(4-chloro-benzenesulfonyl)-pyrrolidine-2-carboxylic Acid (1-cyano-cyclopropyl)-amide], for which the figures for the 50% inhibitory concentration (IC50) in test [1] and in test [2] were 0.39 nM and 2500 nM, respectively.

Turning to `N#CC1(NC(=O)[C@@H]2C[C@@H](S(=O)(=O)c3ccccc3Cl)CN2S(=O)(=O)c2ccc(-c3ccccc3)cc2)CC1` [Example 316, (2S,4R)-1-(Biphenyl-4-sulfonyl)-4-(2-chloro-benzenesulfonyl)-pyrrolidine-2-carboxylic acid (1-cyano-cyclopropyl)-amide], the results for the IC50 in test [1] and in test [2] were 0.3 nM and 5240 nM, respectively.

In the case of `Cc1cc(N2C[C@H](S(=O)(=O)c3ccccc3C(F)(F)F)C[C@H]2C(=O)NC2(C#N)CC2)n(-c2cccnn2)n1` [Example 317, (2S,4R)-1-(5-Methyl-2-pyridazin-3-yl-2H-pyrazol-3-yl)-4-(2-trifluoromethyl-benzenesulfonyl)-pyrrolidine-2-carboxylic acid (1-cyano-cyclopropyl)-amide], the IC50 in test [1] is 22.8 nM; in test [2], at least 25000 nM.

Take `Cc1cc(N2C[C@H](S(=O)(=O)c3ccccc3C(F)(F)F)C[C@H]2C(=O)NC2(C#N)CC2)n(C2CCCCC2)n1` [Example 318, (2S,4R)-1-(2-Cyclohexyl-5-methyl-2H-pyrazol-3-yl)-4-(2-trifluoromethyl-benzenesulfonyl)-pyrrolidine-2-carboxylic acid (1-cyano-cyclopropyl)-amide]: the IC50 came to 0.437 nM in test [1] and 11300 nM in test [2].

`Cc1cc(N2C[C@H](S(=O)(=O)c3ccccc3C(F)(F)F)C[C@H]2C(=O)NC2(C#N)CC2)n(Cc2ccccc2)n1` [Example 319, (2S,4R)-1-(2-Benzyl-5-methyl-2H-pyrazol-3-yl)-4-(2-trifluoromethyl-benzenesulfonyl)-pyrrolidine-2-carboxylic acid (1-cyano-cyclopropyl)-amide]: the concentration for half-maximal inhibition (IC50) turned out to be 1.43 nM in test [1] and 40800 nM in test [2].

For `Cc1cc(N2C[C@H](S(=O)(=O)c3ccccc3C(F)(F)F)C[C@@H]2C(=O)NC2(C#N)CC2)n(C2CCCCC2)n1` [Example 320, (2R,4R)-1-(2-Cyclohexyl-5-methyl-2H-pyrazol-3-yl)-4-(2-trifluoromethyl-benzenesulfonyl)-pyrrolidine-2-carboxylic acid (1-cyano-cyclopropyl)-amide], the IC50 in test [1] was 80.5 nM; in test [2] it was at least 25000 nM.

For `Cc1cc(N2C[C@H](S(=O)(=O)c3ccccc3C(F)(F)F)C[C@@H]2C(=O)NC2(C#N)CC2)n(Cc2ccccc2)n1` [Example 321, (2R,4R)-1-(2-Benzyl-5-methyl-2H-pyrazol-3-yl)-4-(2-trifluoromethyl-benzenesulfonyl)-pyrrolidine-2-carboxylic acid (1-cyano-cyclopropyl)-amide], the IC50 in test [1] was 68.3 nM; in test [2], at least 25000 nM.

As for `Cc1cc(N2C[C@H](S(=O)(=O)c3ccccc3C(F)(F)F)C[C@H]2C(=O)NC2(C#N)CC2)n(C2CCC2)n1` [Example 322, (2S,4R)-1-(2-Cyclobutyl-5-methyl-2H-pyrazol-3-yl)-4-(2-trifluoromethyl-benzenesulfonyl)-pyrrolidine-2-carboxylic acid (1-cyano-cyclopropyl)-amide], the IC50 in test [1] came out at 0.3 nM; in test [2], 28500 nM.

On to `N#CC1(NC(=O)[C@@H]2C[C@@H](S(=O)(=O)c3ccccc3Cl)CN2S(=O)(=O)c2ccc(-c3cnco3)cc2)CC1` [Example 323, (2S,4R)-4-(2-Chloro-benzenesulfonyl)-1-(4-oxazol-5-yl-benzenesulfonyl)-pyrrolidine-2-carboxylic acid (1-cyano-cyclopropyl)-amide], for which the results for the IC50 in test [1] and in test [2] were 0.44 nM and 4820 nM, respectively.

For the compound `N#CC1(NC(=O)[C@@H]2C[C@@H](S(=O)(=O)c3ccc(N4CCC4)cc3Cl)CN2C(=O)C2(c3ccc(Cl)cc3)CC2)CC1` [Example 328, (2S,4R)-4-(4-Azetidin-1-yl-2-chloro-benzenesulfonyl)-1-[1-(4-chloro-phenyl)-cyclopropanecarbonyl]-pyrrolidine-2-carboxylic acid (1-cyano-cyclopropyl)-amide], the IC50 in test [1] worked out at 0.16 nM; in test [2], 130 nM.

As for `N#CC1(NC(=O)[C@@H]2C[C@@H](S(=O)(=O)c3ccc(OCC(F)(F)F)cc3Cl)CN2C(=O)C2(c3cccc(Cl)c3)CC2)CC1` [Example 331, (2S,4R)-1-[1-(3-Chloro-phenyl)-cyclopropanecarbonyl]-4-[2-chloro-4-(2,2,2-trifluoro-ethoxy)-benzenesulfonyl]-pyrrolidine-2-carboxylic acid (1-cyano-cyclopropyl)-amide], the IC50 in test [1] was determined as 0.18 nM; in test [2], 1050 nM.

Regarding `N#CC1(NC(=O)[C@@H]2C[C@@H](S(=O)(=O)c3ccc(OCC(F)(F)F)cc3Cl)CN2C(=O)C2(c3cccc(Br)c3)CC2)CC1` [Example 332, (2S,4R)-1-[1-(3-Bromo-phenyl)-cyclopropanecarbonyl]-4-[2-chloro-4-(2,2,2-trifluoro-ethoxy)-benzenesulfonyl]-pyrrolidine-2-carboxylic acid (1-cyano-cyclopropyl)-amide], the concentration for half-maximal inhibition (IC50) in test [1] was found to be 0.195 nM; in test [2], 580 nM.

Turning to `COc1cccc(-n2nc(C)cc2N2C[C@H](S(=O)(=O)c3ccccc3C(F)(F)F)C[C@H]2C(=O)NC2(C#N)CC2)c1` [Example 333, (2S,4R)-1-[2-(3-Methoxy-phenyl)-5-methyl-2H-pyrazol-3-yl]-4-(2-trifluoromethyl-benzenesulfonyl)-pyrrolidine-2-carboxylic acid (1-cyano-cyclopropyl)-amide], the half-maximal inhibitory concentration (IC50) was 1.9 nM in test [1] and 7980 nM in test [2].

Take `COc1cccc(-n2nc(C)cc2N2C[C@H](S(=O)(=O)c3ccccc3C(F)(F)F)C[C@@H]2C(=O)NC2(C#N)CC2)c1` [Example 334, (2R,4R)-1-[2-(3-Methoxy-phenyl)-5-methyl-2H-pyrazol-3-yl]-4-(2-trifluoromethyl-benzenesulfonyl)-pyrrolidine-2-carboxylic acid (1-cyano-cyclopropyl)-amide]: the 50% inhibitory concentration (IC50) was 780 nM in test [1] and at least 25000 nM in test [2].

Turning to `N#CC1(NC(=O)[C@@H]2C[C@@H](S(=O)(=O)c3ccccc3C(F)(F)F)CN2c2nnc(C(F)(F)F)s2)CC1` [Example 335, (2S,4R)-4-(2-Trifluoromethyl-benzenesulfonyl)-1-(5-trifluoromethyl-[1,3,4]thiadiazol-2-yl)-pyrrolidine-2-carboxylic acid (1-cyano-cyclopropyl)-amide], the values for the IC50 in test [1] and in test [2] were 0.484 nM and at least 25000 nM, respectively.

On to `Cc1cc(N2C[C@H](S(=O)(=O)c3ccccc3C(F)(F)F)C[C@H]2C(=O)NC2(C#N)CC2)n(CCc2ccccc2)n1` [Example 337, (2S,4R)-1-(5-Methyl-2-phenethyl-2H-pyrazol-3-yl)-4-(2-trifluoromethyl-benzenesulfonyl)-pyrrolidine-2-carboxylic acid (1-cyano-cyclopropyl)-amide], for which the IC50 in test [1] amounted to 1.65 nM; in test [2] it was 13000 nM.

In the case of `Cc1cc(N2C[C@H](S(=O)(=O)c3ccccc3C(F)(F)F)C[C@@H]2C(=O)NC2(C#N)CC2)n(CCc2ccccc2)n1` [Example 338, (2R,4R)-1-(5-Methyl-2-phenethyl-2H-pyrazol-3-yl)-4-(2-trifluoromethyl-benzenesulfonyl)-pyrrolidine-2-carboxylic acid (1-cyano-cyclopropyl)-amide], the results for the IC50 in test [1] and in test [2] were 375 nM and at least 25000 nM, respectively.

Turning to `Cc1cc(N2C[C@H](S(=O)(=O)c3ccccc3C(F)(F)F)C[C@H]2C(=O)NC2(C#N)CC2)n(C(C)(C)C)n1` [Example 339, (2S,4R)-1-(2-tert-Butyl-5-methyl-2H-pyrazol-3-yl)-4-(2-trifluoromethyl-benzenesulfonyl)-pyrrolidine-2-carboxylic acid (1-cyano-cyclopropyl)-amide], the IC50 is 62.5 nM in test [1] and at least 25000 nM in test [2].

For the compound `Cc1cc(N2C[C@H](S(=O)(=O)c3ccccc3C(F)(F)F)C[C@H]2C(=O)NC2(C#N)CC2)n(CC(C)C)n1` [Example 340, (2S,4R)-1-(2-Isobutyl-5-methyl-2H-pyrazol-3-yl)-4-(2-trifluoromethyl-benzenesulfonyl)-pyrrolidine-2-carboxylic acid (1-cyano-cyclopropyl)-amide], the IC50 in test [1] worked out at 0.975 nM; in test [2], 26400 nM.

Regarding `Cc1cc(N2C[C@H](S(=O)(=O)c3ccccc3C(F)(F)F)C[C@@H]2C(=O)NC2(C#N)CC2)n(CC(C)C)n1` [Example 341, (2R,4R)-1-(2-Isobutyl-5-methyl-2H-pyrazol-3-yl)-4-(2-trifluoromethyl-benzenesulfonyl)-pyrrolidine-2-carboxylic acid (1-cyano-cyclopropyl)-amide], the IC50 in test [1] was 150 nM; in test [2], at least 25000 nM.

As for `COCCOc1ccc(S(=O)(=O)[C@@H]2C[C@@H](C(=O)NC3(C#N)CC3)N(C(=O)C3(c4ccc(Cl)cc4)CC3)C2)c(Cl)c1` [Example 342, (2S,4R)-4-[2-Chloro-4-(2-methoxy-ethoxy)-benzenesulfonyl]-1-[1-(4-chloro-phenyl)-cyclopropanecarbonyl]-pyrrolidine-2-carboxylic acid (1-cyano-cyclopropyl)-amide], the figures for the IC50 in test [1] and in test [2] were 0.08 nM and 49.5 nM, respectively.

Regarding `N#CC1(NC(=O)C2CC(S(=O)(=O)c3ccccc3C(F)(F)F)CN2c2ccccc2-c2ccccc2)CC1` (centres unmarked) [Example 343, 1-Biphenyl-2-yl-4-(2-trifluoromethyl-benzenesulfonyl)-pyrrolidine-2-carboxylic acid (1-cyano-cyclopropyl)-amide], the IC50 in test [1] is 99.3 nM; in test [2], at least 25000 nM.
